Source: patent US20250092065A1, “2-(INDAZOL-5-YL)-6-(PIPERIDIN-4-YL)-1,7-NAPHTHYRIDINE DERIVATIVES AND RELATED COMPOUNDS AS MODULATORS FOR SPLICING NUCLEIC ACIDS AND FOR THE TREATMENT OF PROLIFERATIVE DISEASES” (REMIX THERAPEUTICS INC., priority 2022, published 2025)

What was measured:
Format in all cases: cell-based, human
Conditions in all cases: HiBiT knock-in K562 cells, 24 hours, top dose 10 μM
[1] = system: Target C; assay: HiBiT protein abundance assay, Target C (K562 HiBiT knock-in)
How it was run: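 K562 HiBiT knock-in cells (10000/well) were treated 24 h at 37° C with a 10-point 3-fold dilution series (top 10 μM final, ≤0.25% DMSO). HiBiT luminescence was read after lytic LgBiT detection. Percent response used unmodified K562 and DMSO-treated knock-in controls, and IC50 came from a four-parameter fit at 50% of untreated.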

[2] = system: MYB; assay: HiBiT protein abundance assay, MYB (K562 HiBiT knock-in)
How it was run: (§1)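 Tagged-protein levels were measured as HiBiT/LgBiT luminescence in lysed K562 knock-in cells exposed to serially diluted compound (up to 10 μM final) for 24 hours. A four-parameter logistic regression of control-normalized signal yielded the IC50.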

[3] = system: HTT; assay: HiBiT protein abundance assay, HTT (K562 HiBiT knock-in)
How it was run: as §1

Row | Compound | IC50 [1] [nM] | IC50 [2] [nM] | IC50 [3] [nM]
1 | Cn1cc2cc(-c3ccc4nc(N5CC[C@@H](NC6CC(F)(F)C6)C5)ccc4n3)c(O)cc2n1 [Compound 385] | 100 to 1000 | 100 to 1000 | < 100
2 | Cn1cc2cc(-c3ccc4nc(N5CCC(NCC6CC6)C5)ccc4n3)c(O)c(F)c2n1 (stereo not drawn) [Compound 387, 5-(6-{3-[(cyclopropylmethyl)amino]pyrrolidin-1-yl}-1,5-naphthyridin-2-yl)-7-fluoro-2-methylindazol-6-ol] | < 100 | < 100 | < 100
3 | CC(C)NC1CCN(c2ccc3nc(-c4cc5cn(C)nc5c(F)c4O)ccc3n2)C1 (stereo not drawn) [Compound 388, 7-fluoro-5-{6-[3-(isopropylamino)pyrrolidin-1-yl]-1,5-naphthyridin-2-yl}-2-methylindazol-6-ol] | < 100 | < 100 | < 100
4 | Cc1nc2cc(O)c(-c3ccc4nc(N5CCC(NCC6CC6)C5)ccc4n3)cc2o1 (stereo not drawn) [Compound 389, 6-(6-{3-[(cyclopropylmethyl)amino]pyrrolidin-1-yl}-1,5-naphthyridin-2-yl)-2-methyl-1,3-benzoxazol-5-ol] | < 100 | < 100 | < 100
5 | Cc1nc2c(C)c(O)c(-c3ccc4nc(N5CCC(NCC6CC6)C5)ccc4n3)cc2o1 (stereo not drawn) [Compound 390, 6-(6-{3-[(cyclopropylmethyl)amino]pyrrolidin-1-yl}-1,5-naphthyridin-2-yl)-2,4-dimethyl-1,3-benzoxazol-5-ol] | < 100 | < 100 | < 100
6 | CNC1CCN(c2ccc3nc(-c4cc(F)c5nc(C)cn5c4)ncc3n2)C1 (stereo not drawn) [Compound 393, 1-(2-{8-fluoro-2-methylimidazo[1,2-a]pyridin-6-yl}pyrido[3,2-d]pyrimidin-6-yl)-N-methylpyrrolidin-3-amine] | 100 to 1000 | < 100 | 100 to 1000
7 | Cc1c(O)c(-c2ncc3nc(C4CCNC4)ccc3n2)cc2cn(C)nc12 (stereo not drawn) [Compound 397, 2,7-dimethyl-5-[6-(pyrrolidin-3-yl)pyrido[3,2-d]pyrimidin-2-yl]indazol-6-ol; trifluoroacetic acid] | 1000 to 10000 | 100 to 1000 | 1000 to 10000
8 | Cc1c(O)c(-c2ncc3nc([C@H]4CCNC4)ccc3n2)cc2cn(C)nc12 [Compound 399] | > 10000 | 1000 to 10000 | > 10000
9 | Cn1cc2cc(-c3ncc4nc(C5CCNCC5)ccc4n3)c(O)c(C#N)c2n1 [Compound 403, 6-hydroxy-2-methyl-5-[6-(piperidin-4-yl)pyrido[3,2-d]pyrimidin-2-yl]indazole-7-carbonitrile; trifluoroacetic acid] | 100 to 1000 | < 100 | 100 to 1000
10 | Cn1cc2cc(-c3ccc4nc(N5CCC(NC(C)(C)C)C5)ncc4n3)c(O)cc2n1 (stereo not drawn) [Compound 404, 5-{2-[3-(tert-butylamino)pyrrolidin-1-yl]pyrido[3,2-d]pyrimidin-6-yl}-2-methylindazol-6-ol] | < 100 | 100 to 1000 | < 100
11 | COc1cc(-c2ccc3nc(N4CCC(NC(C)(C)C)C4)ncc3n2)cnn1 (stereo not drawn) [Compound 405, N-tert-butyl-1-[6-(6-methoxypyridazin-4-yl)pyrido[3,2-d]pyrimidin-2-yl]pyrrolidin-3-amine] | 1000 to 10000 | 1000 to 10000 | 1000 to 10000
12 | CN[C@H]1CCN(c2ccc3nc(-c4cc(C#N)c5nc(C)cn5c4)ncc3n2)C1 [Compound 406, 2-methyl-6-{6-[(3S)-3-(methylamino)pyrrolidin-1-yl]pyrido[3,2-d]pyrimidin-2-yl}imidazo[1,2-a]pyridine-8-carbonitrile] | 1000 to 10000 | 100 to 1000 | 1000 to 10000
13 | CN[C@@H]1CCN(c2ccc3nc(-c4cc(C#N)c5nc(C)cn5c4)ncc3n2)C1 [Compound 407, 2-methyl-6-{6-[(3R)-3-(methylamino)pyrrolidin-1-yl]pyrido[3,2-d]pyrimidin-2-yl}imidazo[1,2-a]pyridine-8-carbonitrile] | 1000 to 10000 | 100 to 1000 | 100 to 1000
14 | Cc1nc2cc(O)c(-c3ccc4nc(N5CCNCC5)ccc4n3)cc2o1 [Compound 408, 2-methyl-6-[6-(piperazin-1-yl)-1,5-naphthyridin-2-yl]-1,3-benzoxazol-5-ol] | 100 to 1000 | 100 to 1000 | 100 to 1000
15 | Cc1nc2cc(O)c(-c3ccc4nc(N5CCN[C@@H](C)C5)ccc4n3)cc2o1 [Compound 409] | 100 to 1000 | 100 to 1000 | 100 to 1000
16 | Cc1nc2cc(O)c(-c3ccc4nc(N5CCN6CCCC6C5)ccc4n3)cc2o1 (stereo not drawn) [Compound 410] | 100 to 1000 | 100 to 1000 | 100 to 1000
17 | Cc1nc2cc(O)c(-c3ccc4nc(N5CCNC6(CC6)C5)ccc4n3)cc2o1 [Compound 411] | 1000 to 10000 | 100 to 1000 | 1000 to 10000
18 | Cc1nc2cc(O)c(-c3ccc4nc(N5CCC(NC(C)(C)C)CC5)ccc4n3)cc2o1 [Compound 412] | 100 to 1000 | 100 to 1000 | 100 to 1000

Row | Compound | IC50 [1] [nM] | IC50 [2] [nM] | IC50 [3] [nM]
19 | Cc1nc2cc(O)c(-c3ccc4nc(N5CC[C@@H](NC(C)(C)C)C5)ncc4n3)cc2o1 [Compound 413, 6-{2-[(3R)-3-(tert-butylamino)pyrrolidin-1-yl]pyrido[3,2-d]pyrimidin-6-yl}-2-methyl-1,3-benzoxazol-5-ol] | < 100 | < 100 | < 100
20 | Cc1nc2cc(O)c(-c3ccc4nc(N5CC[C@H](NC(C)(C)C)C5)ncc4n3)cc2o1 [Compound 414, 6-{2-[(3S)-3-(tert-butylamino)pyrrolidin-1-yl]pyrido[3,2-d]pyrimidin-6-yl}-2-methyl-1,3-benzoxazol-5-ol] | 100 to 1000 | 1000 to 10000 | 100 to 1000
21 | Cc1nc2c(C)c(O)c(-c3ccc4nc(N5CC[C@H](NC(C)C)C5)ncc4n3)cc2o1 [Compound 416, 6-{2-[(3S)-3-(isopropylamino)pyrrolidin-1-yl]pyrido[3,2-d]pyrimidin-6-yl}-2,4-dimethyl-1,3-benzoxazol-5-ol] | < 100 | < 100 | < 100
22 | Cc1nc2cc(O)c(-c3ccc4cc(N5CC[C@@H](NC(C)(C)C)C5)ncc4n3)cc2o1 [Compound 417] | 1000 to 10000 | < 100 | 100 to 1000
23 | Cc1nc2cc(O)c(-c3ccc4nc(N5CCN[C@@H](C6CC6)C5)ccc4n3)cc2o1 [Compound 418] | 100 to 1000 | 100 to 1000 | 100 to 1000
24 | Cc1nc2cc(O)c(-c3ccc4nc(N5C[C@@H](C)N[C@@H](C6CC6)C5)ccc4n3)cc2o1 [Compound 419] | 100 to 1000 | 100 to 1000 | 100 to 1000
25 | Cc1nc2cc(O)c(-c3ccc4nc(N5C[C@@H](C)N[C@@H](C)C5)ccc4n3)cc2o1 [Compound 420] | 100 to 1000 | 100 to 1000 | 100 to 1000
26 | Cc1nc2cc(O)c(-c3ccc4nc(N5CCN[C@H](C6CC6)C5)ccc4n3)cc2o1 [Compound 421] | 100 to 1000 | 100 to 1000 | 100 to 1000
27 | Cc1nc2cc(O)c(-c3ccc4nc(N5CCN[C@@H](C(C)C)C5)ccc4n3)cc2o1 [Compound 422] | 100 to 1000 | 100 to 1000 | 100 to 1000
28 | Cc1nc2cc(O)c(-c3ccc4nc(N5CCC(N)CC5)ccc4n3)cc2o1 [Compound 424] | 100 to 1000 | 1000 to 10000 | 1000 to 10000
29 | CNC1CCN(c2ccc3nc(-c4cc5oc(C)nc5cc4O)ccc3n2)CC1 [Compound 425] | 1000 to 10000 | 1000 to 10000 | 1000 to 10000
30 | Cc1nc2c(C)c(O)c(-c3ccc4nc(N5CC[C@H](NC6CC6)C5)ncc4n3)cc2o1 [Compound 433, 6-{2-[(3S)-3-(cyclopropylamino)pyrrolidin-1-yl]pyrido[3,2-d]pyrimidin-6-yl}-2,4-dimethyl-1,3-benzoxazol-5-ol] | < 100 | 100 to 1000 | < 100
31 | Cc1nc2cc(O)c(-c3ccc4nc(N5CC[C@H](NC6CC6)C5)ncc4n3)cc2o1 [Compound 435, 6-{2-[(3S)-3-(cyclopropylamino)pyrrolidin-1-yl]pyrido[3,2-d]pyrimidin-6-yl}-2-methyl-1,3-benzoxazol-5-ol] | 100 to 1000 | 100 to 1000 | 100 to 1000
32 | Cc1nc2c(C)c(O)c(-c3ccc4nc(N5CC[C@@H](NC(C)(C)C)C5)ncc4n3)cc2o1 [Compound 436] | < 100 | < 100 | < 100
33 | Cc1nc2c(C)c(O)c(-c3ccc4nc(N5CC[C@H](NC(C)(C)C)C5)ncc4n3)cc2o1 [Compound 437] | < 100 | 100 to 1000 | < 100
34 | Cc1c(O)c(-c2ccc3nc(N4CC[C@@H](NC5CC5)C4)ncc3n2)cc2cn(C)nc12 [Compound 438, 5-{2-[(3R)-3-(cyclopropylamino)pyrrolidin-1-yl]pyrido[3,2-d]pyrimidin-6-yl}-2,7-dimethylindazol-6-ol] | < 100 | 100 to 1000 | < 100
35 | Cc1c(O)c(-c2ccc3nc(N4CC[C@H](NC5CC5)C4)ncc3n2)cc2cn(C)nc12 [Compound 439, 5-{2-[(3S)-3-(cyclopropylamino)pyrrolidin-1-yl]pyrido[3,2-d]pyrimidin-6-yl}-2,7-dimethylindazol-6-ol] | < 100 | 100 to 1000 | < 100
36 | Cc1nc2c(C)c(O)c(-c3ccc4cc(N5CC[C@@H](NC6CC6)C5)ncc4n3)cc2o1 [Compound 440, 6-{6-[(3R)-3-(cyclopropylamino)pyrrolidin-1-yl]-1,7-naphthyridin-2-yl}-2,4-dimethyl-1,3-benzoxazol-5-ol] | < 100 | 100 to 1000 | < 100
